# “Also recorded” adds a separate entry of the source.
# Tests used:
# [1] = tested on: Experimental Autoimmune Encephalomyelitis (EAE); test: Experimental Autoimmune Encephalomyelitis (EAE) model: clinical score and body weight; assay type: in vivo; conditions: EAE C57BL/6 mice, 10 mg/kg intraperitoneally every day from day 10, vs vehicle
# Procedure: 6-8 weeks old Female C57BL/6 mice were purchased from Jackson Laboratory (Bar Harbor, ME). Animals colonies were maintained in accordance with Federal regulations and guidelines set by the animal facility of the University of South Carolina Institutional Animal Care and Use Committee (IACUC). Mice were housed in a single room under controlled temperature (22° C.), identical SPF, 50% relative humidity, and photoperiods (12:12 hours light/dark cycle). Animals were allowed unlimited access (ad libitum feeding) to autoclaved drinking water and a standard irradiated soy-free mouse chow. The health of the animals was monitored daily by the veterinarian in the animal facility.
# EAE is a model for human Multiple Sclerosis. EAE was induced in 6-8 weeks old Female C57BL/6 mice through subcutaneous immunization with 100 μl of 150 μg MOG35-55 peptide (PolyPeptide Laboratories San Diego, CA, USA) along with heat killed Mycobacterium Tuberculosis 8 mg/ml (strain H37Ra) (BD, Franklin Lakes, NJ, USA), emulsified in PBS and complete Freund's adjuvant (CFA) (Fisher, Hampton, NH, USA). Mice also received two subsequent doses of 200 and 400 ng of pertussis toxin intraperitoneally on day 0 and 2, respectively (List Biological Laboratories, Campbell, CA, USA). […] During the experiment, animals were weighed for weight change and scored for disease progression on a daily basis. The mean body weight and clinical scores were calculated daily for each group. Clinical scores were recorded as follows: 0, healthy; 1, tail atony; 2, partial paralysis of hind limbs; 3, complete paralysis of hind limbs in combination with partial front limb paralysis; 4, tetraplegia; 5, moribund.
# The data were expressed as mean±SEM calculated using GraphPad Prism 9 (GraphPad Inc, La Jolla, CA) and the data sets for all experiments represent three to four experimental replicates per group. […]
# [2] = tested on: immune cells from brain and spleens; test: Flow cytometry of immune cells from brain and spleens of EAE mice; assay type: in vivo, C57BL/6 mice
# Procedure: (§1) EAE is a model for human Multiple Sclerosis. EAE was induced in 6-8 weeks old Female C57BL/6 mice through subcutaneous immunization with 100 μl of 150 μg MOG35-55 peptide (PolyPeptide Laboratories San Diego, CA, USA) along with heat killed Mycobacterium Tuberculosis 8 mg/ml (strain H37Ra) (BD, Franklin Lakes, NJ, USA), emulsified in PBS and complete Freund's adjuvant (CFA) (Fisher, Hampton, NH, USA). Mice also received two subsequent doses of 200 and 400 ng of pertussis toxin intraperitoneally on day 0 and 2, respectively (List Biological Laboratories, Campbell, CA, USA). Beginning on day 10, mice received a 100 μL intraperitoneal injection containing either a vehicle (sterile corn oil (CO) with 2% DMSO v/v) or a treatment suspension (10 mg/kg delta-8-THC in sterile CO with 2% DMSO v/v) every day till the end of the experiment. The control mice received the appropriate vehicle. On the appearance of the clinical symptoms, the animals were provided with food and water (Boost and Hydrogel) in the cage bedding to ensure their access to essential nutrients. During the experiment, animals were weighed for weight change and scored for disease progression on a daily basis. The mean body weight and clinical scores were calculated daily for each group. Clinical scores were recorded as follows: 0, healthy; 1, tail atony; 2, partial paralysis of hind limbs; 3, complete paralysis of hind limbs in combination with partial front limb paralysis; 4, tetraplegia; 5, moribund.
# BD FACSCelesta flow cytometer was used to quantify the phenotypes of immune cells from brain and spleens. Cells were stained with fluorescently labeled monoclonal antibodies purchased from Biolegend (San Diego, CA). The data obtained from flow cytometer was analyzed on FlowJo software.
# [3] = tested on: brain-infiltrating CD4+ T cells; test: qRT-PCR of brain-infiltrating CD4+ T cells from EAE mice; assay type: in vivo, C57BL/6 mice
# Procedure: as §1
# (§2) Mononuclear cells isolated from brain were labeled with Phycoerythrin-conjugated (PE-Conjugated) anti-CD4 antibody purchased from Biolegends. […]
# (§3) To analyze gene expression, total RNA was purified from brain infiltrating CD4^+ cells using miRNeasy micro kit according to the manufacturer's instructions. RNA purity and concentration were measured by using Nanodrop spectrophotometer from Thermoscientific. […] The results obtained from qRT-PCR were calculated using delta delta Ct (ΔΔCt) method.
# [4] = tested on: brain-infiltrating CD4+ T cells; test: miRNA microarray of CD4+ T cells isolated from the brain of EAE mice; assay type: in vivo, C57BL/6 mice
# Procedure: as §1, §2, §3
# [5] = target: CB1 receptors (Homo sapiens, UniProt P21554); conditions: CB1 receptors located in the CNS; cited from earlier work
# Sequence of CB1 receptors (P21554 whole entry): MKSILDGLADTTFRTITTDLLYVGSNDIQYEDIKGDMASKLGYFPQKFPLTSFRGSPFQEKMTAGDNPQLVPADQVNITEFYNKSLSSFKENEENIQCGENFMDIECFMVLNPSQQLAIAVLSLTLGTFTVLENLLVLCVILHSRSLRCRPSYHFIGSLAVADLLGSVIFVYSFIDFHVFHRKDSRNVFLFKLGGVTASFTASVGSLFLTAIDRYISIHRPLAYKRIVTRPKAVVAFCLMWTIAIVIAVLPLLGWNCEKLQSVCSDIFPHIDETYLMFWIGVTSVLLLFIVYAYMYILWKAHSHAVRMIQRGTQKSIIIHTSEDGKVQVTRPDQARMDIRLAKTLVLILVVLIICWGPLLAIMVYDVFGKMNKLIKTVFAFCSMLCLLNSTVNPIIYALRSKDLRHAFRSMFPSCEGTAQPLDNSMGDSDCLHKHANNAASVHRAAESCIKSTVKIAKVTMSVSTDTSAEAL
# [6] = tested on: brain infiltrating mononuclear cells; test: miRNA sequencing (miRNASeq) of brain infiltrating mononuclear cells of EAE mice
# [7] = CD4+ T cells isolated from the brain of EAE mice, miRNA microarray
smiles,measurement,setting,value
"CCCCCc1cc(O)c2c(c1)OC(C)(C)[C@@H]1CC=C(C)C[C@@H]21 [Δ-8-THC, delta-8-tetrahydrocannabinol]",body weight,[1],increase; also recorded: attenuated
same,disease clinical scores / paralysis,[1],highly significant reduction; also recorded: attenuated; also recorded: decreased levels of paralysis
same,body weight,[1]; listed as Δ8-THC,gain weight
same,IL-17+ CD4+ T cells in the brains,[2]; brain,decrease
same,RORγt+ (Th17) cells in the brains,[2]; brain,decrease
same,Th1 cells (T-bet) in the brain,"[2]; brain, expression of T-bet",not in the brain; also recorded: decrease
same,IL-17+ CD4+ T cells in the brains,"[2]; brain, listed as Δ8-THC",decreased
same,RORγt+ (Th17) cells in the brains,"[2]; brain, listed as Δ8-THC",decreased
same,percentage of macrophages in the brain,[2]; brain-infiltrating pro-inflammatory macrophages,decreased
same,percentage of CD4+ T cells in the brain,"[2]; flow cytometry, brain",decrease
same,percentage of CD4+ T cells in the spleens,"[2]; flow cytometry, spleen",decrease
same,IL-17+ CD4+ T cells in the spleens,[2]; spleen,decreased
same,RORγt+ (Th17) cells in the spleens,[2]; spleen,decrease
same,Th1 cells expressing IFN-gamma in the spleens,[2]; spleen,decrease
same,percentage of macrophages in the spleens,[2]; spleen,decrease
same,Th1 cells (T-bet) in the spleen,"[2]; spleen, expression of T-bet",decrease
same,RORγt+ (Th17) cells in the spleens,"[2]; spleen, listed as Δ8-THC",decreased
same,Foxp3 expression,[3],increase
same,IL-10 expression,[3],increased
same,TGF-β expression,[3],increased
same,"expression of miR-21, miR-27a, miR-29a, miR-30a, miR-31, miR-146a, miR-155, and miR-326",[4]; [7],downregulated
same,"expression of miR-let7, miR-130a, miR-181a, miR-328a and miR-448",[4]; [7],upregulating
same,miR expression profile,"[4]; brain-infiltrating CD4+ T cells from EAE mice, compared to the controls",distinct signature profile
same,activity at CB1 receptors,[5],partial agonist
same,miRNA expression (miRNASeq),[6],regulates a distinct set of miRNAs compared to Δ-9-THC; also recorded: unique miRNA signature profile distinct from Δ-9-THC; also recorded: differential expression of miRNAs

# — patent US20230338398A1, “USE OF DELTA-8-THC TO TREAT INFLAMMATORY AND AUTOIMMUNE DISEASES” (UNIVERSITY OF SOUTH CAROLINA, priority 2022, published 2023)
